Test results published in patent US12544372B2, “Methods of treating rheumatoid arthritis, chronic spontaneous urticaria, and systemic lupus erythematosis using an inhibitor of Bruton's tyrosine kinase” (Genentech, Inc., priority 2019, dated 2026).
Marks after values point to notes of the source that are not given here.

Legend:
Anti-dsDNA = test: SLE study biomarker: anti-dsDNA autoantibodies; assay type: in vivo, human; details: patients positive at baseline (>30 IU/mL)
[1] = test system: patients with moderate to severe active rheumatoid arthritis; test: Phase II RA study, Cohort 2 (inadequate response or intolerance to TNF therapy): clinical efficacy; assay type: in vivo, human; details: Cohort 2, 200 mg BID
Source text: A Two-Cohort Randomized Phase II, Double-Blind, Parallel Group Study in Patients with Active Rheumatoid Arthritis Evaluating the Efficacy and Safety of Fenebrutinib Compared with Placebo and Adalimumab in Patients with an Inadequate Response to Previous Methotrexate Therapy (Cohort 1) and Compared with Placebo in Patients with an Inadequate Response or Intolerance to Previous TNF Therapy (Cohort 2)
The study was a multicenter, Phase II, randomized, double-blind, placebo-controlled, active comparator (Cohort 1 only), parallel-group, dose-ranging study to evaluate the efficacy and safety of fenebrutinib in patients with moderate to severe active RA and an inadequate response to previous MTX therapy (Cohort 1) or MTX and TNF therapy who may have also had exposure to no more than one non-TNF inhibitor biologic (Cohort 2). Moderate to severe active RA was defined by ≥6 tender/painful joints on motion (68 joint count) and ≥6 swollen joints (66 joint count) at both screening and Day 1 (randomization), as well as a high sensitivity C-reactive protein (hsCRP)≥0. 400 mg/dL for Cohort 1 a hsCRP≥0.650 mg/dL for Cohort 2 at screening.
The study enrolled 578 patients. In Cohort 1, 480 MTX-IR patients were randomized to placebo (110 patients), ADA (111 patients), or one of three doses of fenebrutinib: 50 mg QD (40 patients), 150 mg QD (109 patients), or 200 mg BID (110 patients). In Cohort 2, 98 TNF-IR patients were randomized to placebo or 200 mg BID fenebrutinib. […]
ACR Assessments. The ACR's definition for calculating improvement in RA (ACR20) is calculated as a 20% improvement in tender and swollen joint counts and a 20% improvement in 3 of the 5 remaining ACR-core set measures: patient and physician global assessments, pain, disability, and an acute-phase reactant. Similarly, ACR50 and ACR70 are calculated with the respective percent improvements. […]

C3 = test: SLE study biomarker: C3; assay type: in vivo, human
Experimental: The following biomarkers were explored according to the biomarker objectives provided above in the Study Objectives. In Table 13, biomarkers are measured at baseline and subsequent timepoints during and after treatment. One set of biomarkers evaluated is the plasmablast signature. Plasmablasts are rapidly dividing, short-lived antibody secreting cells. While they represent a small proportion of B cells in the blood, they are responsible for a majority of antibody transcripts found in whole blood mRNA. The plasmablast signature comprises the biomarkers IgJ, Mzbl, and Txndc5. The gene expression of IgJ, Mzbl, and Txndc5 may be measured, for example, a polypeptide expression by evaluating the level of mRNA for said gene in a patient's blood relative to a reference level.

[2] = Phase II SLE study: safety
Source text: The safety objective for this study was to evaluate the safety of fenebrutinib given in combination with SOC in patients with moderate to severe active SLE.
An unblinded IMC and Scientific Oversight Committee is used to monitor multiple safety assessments.

CRP = test: RA study: CRP versus baseline; assay type: in vivo, human
Experimental: As used herein, “CRP” refers to C-reactive protein, or the blood test for inflammation in the body which measures C-reactive protein in the blood. CRP, a protein produced in the liver, will increase in concentration in the blood in response to inflammation. CRP may be measured by a “hsCRP” test, which measures high sensitivity CRP. In some embodiments, a positive result for elevated CRP is as measured by hsCRP ≥0.400 mg/dL hsCRP test. In other embodiments, a positive result for elevated CRP is as measured by a hsCRP ≥0.650 mg/dL hsCRP test. CRP tests are widely available from a variety of vendors (LabCorp, Quest Diagnostics, Life Line Screening, etc.).
The specific components of the ACR Assessments used in this study are as follows: Tender/Painful Joint Count (68), Swollen Joint Count (66), Patient's Assessment of Arthritis Pain, Patient's Global Assessment of Arthritis, Physician's Global Assessment of Arthritis, CRP and HAQ-DI.

In the case of `C[C@H]1CN(C2COC2)CCN1c1ccc(Nc2cc(-c3ccnc(N4CCn5c(cc6c5CC(C)(C)C6)C4=O)c3CO)cn(C)c2=O)nc1` [fenebrutinib, (S)-2-(3′-(hydroxymethyl)-1-methyl-5-((5-(2-methyl-4-(oxetan-3-yl)piperazin-1-yl)pyridin-2-yl)amino)-6-oxo-1,6-dihydro-[3,4′-bipyridin]-2′-yl)-7,7-dimethyl-2,3,4,6,7,8-hexahydro-1H-cyclopenta[4,5]pyrrolo[1,2-a]pyrazin-1-one], the “Anti-dsDNA, Median Change from Baseline at Week 48” value (Anti-dsDNA; 150 mg QD) is reported as −38.3* IU/ml, the “Anti-dsDNA, Median Change from Baseline at Week 48” value (Anti-dsDNA; 200 mg BID) is reported as −75.7* IU/ml and the “DAS 28-3 (CRP) Adjusted Mean” value ([1]; Week 12) is reported as −1.96. For the same compound, the “ACR50 Weighted Difference vs Placebo” value ([1]; Week 12 Day 84) was 13.85, the “DAS 28-3 (CRP) Difference (d)” value ([1]; versus placebo, Week 12) was −0.76 and the “C3, Median Change from Baseline at Week 48” value (C3; 150 mg QD) was “+0.01 g/L”. The “C3, Median Change from Baseline at Week 48” value (C3; 200 mg BID) was -0.01 g/L, the “Total number of patients with at least one AE” value ([2]; 150 mg QD) was 77 (89) n (%) and the “Total number of patients with at least one AE leading to death” value ([2]; 150 mg QD) was 1 (1) n (%). For the same compound, the “Total number of patients with at least one Serious AE” value ([2]; 150 mg QD) was 4 (5) n (%), the “Total number of patients with at least one AE” value ([2]; 200 mg BID) was 68 (77) n (%) and the “Total number of patients with at least one AE leading to death” value ([2]; 200 mg BID) was 0 n (%). The “Total number of patients with at least one Serious AE” value ([2]; 200 mg BID) was 12 (14) n (%), the “ALT and AST elevations” value ([2]; interim analysis, 200 mg BID arm, some patients) was “signs of ALT and AST elevations” and the safety and tolerability ([2]; interim analysis, each dose) was “safe and well tolerated”. The “CRP, % of BL CRP” value (CRP; Cohort 1, 200 mg BID, Week 8 and Week 12) was 59% and the CRP levels (CRP; Cohort 2, Week 8 and Week 12) was “reduced CRP levels”.
